Assay results: US12679827B2, “Pyrimidine compounds and their pharmaceutical uses” (National Health Research Institutes, priority 2020, dated 2026)

Legend:
[1] = tested on: NCI-H82; assay: Small-cell-lung cancer cell proliferation inhibition assay (PrestoBlue), NCI-H82; format: cell-based; conditions: Homo sapiens, cMYC amplified SCLC cells, 72 hours
Experimental: (§1) Small cell lung cancer cells NCI-H82 (ATCC HTB-175, cMYC amplified), NCI-H446 (ATCC® HTB-171, cMYC amplified), and NCI-H69 (ATCC® HTB-119, MYCN amplified) were seeded at the density of 5000-10000 cells per well in 96-well plates. After 24 hours, the cancer cells were treated with each compound at various concentrations (0-10 μM) and then incubated for another 72 hours. IC50 values were computed based on duplicated 8-point titration.

[2] = tested on: NCI-H446 xenografted tumor; assay: Inhibition of xenografted tumor growth, NCI-H446-xenografted tumorigenicity mouse model; format: in vivo, mice; conditions: 100 mg/kg orally; for tumor regression: NCI-H446 xenograft
Experimental: The efficacies of two compounds of Formula (I), i.e., compound 71 and compound 122, in inhibiting tumor growth were determined using a NCI-H446-xenografted tumorigenicity mouse model as below.
Male athymic nu/nu nude mice (BioLASCO, Taiwan) at age 6 wk were housed in sterile cages maintained under 12-h light/dark cycles with controlled temperature and humidity. The mice were inoculated s.c. with 1×10^6 NCI-H446 cells (ATCC® HTB-171) resuspended in saline mixed with 50% Metrigel Matrix (Corning, USA). The sizes of the xenografted tumors were measured by a digital caliper (GMC-190; Goldsun Electronics Co.) and calculated using the algorithm: tumor volume (mm^3)=length×(width)^2/2. Body weight and tumor size were measured at least twice a week.

[3] = tested on: NCI-H446; assay: Small-cell-lung cancer cell proliferation inhibition assay (PrestoBlue), NCI-H446; format: cell-based; conditions: Homo sapiens, cMYC amplified SCLC cells, 72 hours
Experimental: as §1

[4] = tested on: cMYC; assay: In vivo cMYC protein level reduction, NCI-H446 xenograft mouse model, Western blot; design: species or system mice; conditions: one oral dosage of 100 mg/kg; tumors harvested 2-24 hours; FIG. 3
Experimental: (§2) The efficacy of a compound of Formula (I), i.e., compound 71, in reducing the cMYC protein level and in inducing cell apoptosis was assessed using an NCI-H446 xenograft tumorigenicity mouse model as follows.
(§3) Male athymic nu/nu nude mice (BioLASCO. Taiwan) at 6-week age were housed in sterile cages maintained under 12-h light/dark cycles with controlled temperature and humidity. Mice were inoculated s.c. with 1×10^6 NCI-H446 cells resuspended in saline mixed with 50% Metrigel Matrix (Corning, USA). The sizes of the xenografted tumors were measured by a digital caliper (GMC-190; Goldsun Electronics Co.) and calculated using the algorithm: tumor volume (mm^3)=length×(width)^2/2. Body weight and tumor size were measured at least twice a week. When the xenografted NCI-H446 tumor reached a size ≥500 mm^3, the xenografted tumor-bearing nude mice were oral (PO) administered with compound 71 at one dosage of 100 mg/kg. Tumors were harvested at 2 hours, 4 hours, 8 hours, and 24 hours after the administration. Tissue lysates of the tumors were subjected for Western blot analysis. The primary antibodies used were cMYC (Cell Signaling, Cat No. 5605S), PARP-1 (Abcam, ab32378), and β-ACTIN (Sigma-Aldrich, A1978).

[5] = tested on: cleaved PARP-1 (cPARP-1); assay: In vivo cell apoptosis induction (cleaved PARP-1), NCI-H446 xenograft mouse model, Western blot; design: species or system mice; conditions: one oral dosage of 100 mg/kg; 24 hours after administration; FIG. 3
Experimental: as §2, §3

[6] = tested on: NCI-H69; assay: Small-cell-lung cancer cell proliferation inhibition assay (PrestoBlue), NCI-H69; format: cell-based; conditions: Homo sapiens, MYCN amplified SCLC cells, 72 hours
Experimental: as §1

[7] = molecular target: T1, human Aurora A (amino acids 123-401) (Homo sapiens, UniProt O14965); assay: Kinase-Glo Luminescent Kinase assay, in vitro inhibition of Aurora A kinase activity; format: biochemical; conditions: recombinant GST-tagged Aurora A, 5.0 μM ATP, 37° C., 120 minutes
T1 construct: human Aurora A (amino acids 123-401) was expressed in Sf9 insect cells; GST; made in house; host or cells: Sf9 insect cells
T1 sequence (O14965 123-401): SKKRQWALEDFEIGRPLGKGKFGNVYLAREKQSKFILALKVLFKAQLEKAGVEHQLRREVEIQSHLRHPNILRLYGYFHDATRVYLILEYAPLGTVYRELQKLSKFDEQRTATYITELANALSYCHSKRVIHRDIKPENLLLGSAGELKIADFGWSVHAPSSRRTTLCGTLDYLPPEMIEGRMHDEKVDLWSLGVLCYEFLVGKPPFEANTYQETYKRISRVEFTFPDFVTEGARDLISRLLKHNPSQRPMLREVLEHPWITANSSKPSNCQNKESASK
Experimental: Recombinant glutathione S-transferase (GST)-tagged N-terminal truncated human Aurora A (amino acids 123-401) was expressed in Sf9 insect cells and then purified by glutathione affinity chromatography to afford recombinant Aurora A. Recombinant Aurora A (150 ng) was reacted with each test compound (100 nM) in 50 μL of 50 mM Tris-HCl pH 7.4, 10 mM NaCl, 10 mM MgCl2, 0.01% bovine serum albumin, 5.0 μM ATP, 1 mM dithiothreitol, 15 μM tetra(-LRRASLG) peptide at 37° C. for 120 minutes. Then, to the reaction was added 50 μL of Kinase-Glo Plus Reagent. The resulting mixture was incubated at 25° C. for 20 minutes. A 70 μL aliquot of the mixture was transferred to a black microliter plate. Luminescence was measured using a Wallac Vector 1420 multilabel counter (PerkinElmer, USA).

[8] = background statement, WO 2014/190207A1; cited from earlier work

Structure (SMILES)	IC50 [1] [nM]	tumor regression [2]	IC50 [3] [nM]	IC50 [6] [nM]	IC50 [7] [nM]	other results
CCC(=O)n1nc(C)cc1Nc1cc(N2CCN(CC)CC2)nc(N[C@H]2CCN(C(=O)c3ccc(Cl)cc3F)C2)n1 [Compound 71]	< 1000	more than 80%	< 1000	< 1000	–	tumor size after treatment ([2]; 5-on-2-off, from about 250 mm^3, in 10 days, FIG. 2A): smaller than 50 mm^3; tumor size after treatment ([2]; 5-on-2-off, from larger than 750 mm^3, in 14 days, FIG. 2C): smaller than 50 mm^3; xenografted tumors with reduced cMYC protein level [4]: more than 50%; xenografted tumors with increased amounts of cleaved PARP-1 (cell apoptosis) [5]: more than 80%
CCC(=O)n1nc(C)cc1Nc1cc(N2CCN(CC)CC2)nc(NC2CCN(C(=O)c3cccc(Cl)c3F)CC2)n1 [Compound 122]	< 1000	more than 80%	< 1000	< 1000	< 100	tumor size after treatment ([2]; from about 250 mm^3, FIG. 2B): smaller than 50 mm^3
O=C(Nc1ccc(Nc2nccc(Nc3cc(C4CCCC4)[nH]n3)n2)cc1)Nc1cccc(C(F)(F)F)c1 [CD532]	–	–	–	–	–	in vivo efficacy [8]: weak
COc1cc(Nc2ncc3c(n2)-c2ccc(Cl)cc2C(c2c(F)cccc2OC)=NC3)ccc1C(=O)O [MCLN8237, reference compound]	–	–	–	–	–	tumor size 6 weeks after the treatment stopped ([2]; FIG. 2A): > 700 mm^3
Cc1cc(Nc2cc(N3CCC(N(C)C)CC3)nc(N[C@H]3CCN(C(=O)c4cccc(Cl)c4F)C3)n2)n[nH]1 [Compound 21]	< 1000	–	< 1000	< 1000	< 100	–
Cc1cc(Nc2cc(N3CC[C@H](N(C)C)C3)nc(NC3CCN(C(=O)c4cccc(Cl)c4F)CC3)n2)n[nH]1 [Compound 96]	< 1000	–	< 1000	< 1000	< 100	–
